The results in this text go back to US8507538B2, “Selective heterocyclic sphingosine 1 phosphate receptor modulators” (Receptos, Inc., priority 2009, dated 2013).

The target of the test is S1P1/EDG1 (Homo sapiens, UniProt P21453). Nature of the test: S1P1 CRE-bla CHOK1 reporter assay (inhibition of Forskolin induced cAMP). It counts as cell-based. The conditions noted are these: agonist activity range, Table 2; read-out: S1P1 ACTIVITY
Chain of S1P1/EDG1 (P21453 whole entry): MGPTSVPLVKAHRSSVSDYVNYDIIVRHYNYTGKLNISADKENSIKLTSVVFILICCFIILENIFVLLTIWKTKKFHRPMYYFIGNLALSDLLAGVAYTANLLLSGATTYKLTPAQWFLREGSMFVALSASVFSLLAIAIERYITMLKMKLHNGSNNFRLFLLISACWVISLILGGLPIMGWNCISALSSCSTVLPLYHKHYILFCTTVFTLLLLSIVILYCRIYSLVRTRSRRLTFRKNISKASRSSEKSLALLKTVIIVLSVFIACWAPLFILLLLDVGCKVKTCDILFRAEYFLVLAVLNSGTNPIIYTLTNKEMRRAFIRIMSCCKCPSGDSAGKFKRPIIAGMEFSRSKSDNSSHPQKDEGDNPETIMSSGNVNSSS
In a few lines: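 Stable CRE-bla CHO-K1 clone expressing human S1P1, serum-starved (0.5% stripped serum) 18 h, then treated with compound (10-point curve) plus 2 μM forskolin for 4 h at 37 °C. β-lactamase FRET ratio (458/522 nm) read after 2 h substrate loading; EC50 for inhibition of forskolin-induced cAMP by non-linear regression.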
Turning to `CC(C)Oc1ccc(-c2ncc(-c3cccc4c3CC[C@@H]4NCC(=O)N3CCC[C@H](O)C3)s2)cc1C#N` [Compound 106], the EC50 is above 5 nM.

`CC(C)Oc1ccc(-c2nnc(-c3cccc4c3CC[C@@H]4NCC(=O)N3CCCC3)s2)cc1C#N` [Compound 39]: the EC50 is 0.05 to 0.5 nM.

With `CC(C)Oc1ccc(-c2ncc(-c3cccc4c3CCC4NS(=O)(=O)CC(=O)N3CCOCC3)s2)cc1C#N` (stereo in doubt) [Compound 162, (R)—N-(4-(2-(3-cyano-4-isopropoxyphenyl)thiazol-5-yl)-2,3-dihydro-1H-inden-1-yl)-2-morpholino-2-oxoethanesulfonamide], the EC50 lay in the range of 0.05 to 0.5 nM.

Regarding `CC(C)Oc1ccc(-c2ncc(-c3cccc4c3CC[C@@H]4NC(=O)N3CC(O)C3)s2)cc1C#N` [Compound 170], the EC50 was in the range of 0.5 to 5 nM.

For the compound `CC(C)Oc1ccc(-c2nnc(-c3cccc4c3CC[C@@H]4NC(=O)N3CC[C@H](O)C3)s2)cc1C#N` [Compound 55], the EC50 fell in the range of 0.5 to 5 nM.

On to `CC(C)Oc1ccc(-c2ncc(-c3cccc4c3CC[C@@H]4NC(=O)N3CC[C@@H](N(C)C)C3)s2)cc1C#N` [Compound 183], for which the EC50 was in the range of 0.5 to 5 nM.

As to `CC(C)Oc1ccc(-c2nnc(-c3cccc4c3CC[C@@H]4NCC(=O)N3CCCC3)s2)cc1C#N` [Compound 23], the EC50 lay in the range of 0.5 to 5 nM.

As for `CC(C)Oc1ccc(-c2ncc(-c3cccc4c3CC[C@@H]4NC(=O)N3CCC(O)CC3)s2)cc1C#N` [Compound 202], the EC50 lay in the range of 0.5 to 5 nM.

Regarding `CC(C)Oc1ccc(-c2ncc(-c3cccc4c3CC[C@@H]4NC(=O)N3CC[C@@H](O)C3)s2)cc1C#N` [Compound 174], the EC50 is 0.05 to 0.5 nM.

Regarding `CC(C)Oc1ccc(-c2ncc(-c3cccc4c3CC[C@@H]4NS(=O)(=O)CCN3CCOCC3)s2)cc1C#N` [Compound 121], the EC50 is 0.5 to 5 nM.

Turning to `CC(C)Oc1ccc(-c2ncc(-c3cccc4c3CC[C@@H]4NC(=O)CN)s2)cc1C#N` [Compound 78], the EC50 is 0.5 to 5 nM.

On to `CC(C)Oc1ccc(-c2ncc(-c3cccc4c3CC[C@@H]4NC(=O)N3CC[C@@H](N)C3)s2)cc1C#N` [Compound 181], for which the EC50 is above 5 nM.

For the compound `CC(C)Oc1ccc(-c2nnc(-c3cccc4c3CC[C@@H]4NC(=O)N3CCC[C@H](O)C3)s2)cc1C#N` [Compound 60], the EC50 fell in the range of 0.5 to 5 nM.

As to `CCOc1ccc(-c2nnc(-c3cccc4c3CC[C@@H]4N)s2)cc1OCC` [Compound 6], the EC50 lay in the range of 0.5 to 5 nM.

Turning to `CC(C)Oc1ccc(-c2ncc(-c3cccc4c3CC[C@@H]4NC(=O)Cc3ccccc3)s2)cc1C#N` [Compound 83], the EC50 was above 5 nM.

Consider `CC(C)Oc1ccc(-c2ncc(-c3cccc4c3CC[C@@H]4O)s2)cc1C#N` [Compound 70, (S)-5-(5-(1-hydroxy-2,3-dihydro-1H-inden-4-yl)thiazol-2-yl)-2-isopropoxybenzonitrile], for which the EC50 lay in the range of 0.5 to 5 nM.

For `CC(C)Oc1ccc(-c2ncc(-c3cccc4c3CCC4NCc3ncc[nH]3)s2)cc1C#N` (stereo in doubt) [Compound 109, (R)-5-(5-(1-(((1H-imidazol-2-yl)methyl)amino)-2,3-dihydro-1H-inden-4-yl)thiazol-2-yl)-2-isopropoxybenzonitrile], the EC50 lay in the range of 0.5 to 5 nM.

On to `CC(=O)N[C@H]1CCc2c(-c3nnc(-c4ccc(OC(C)C)c(C#N)c4)s3)cccc21` [Compound 14, (S)-N-(4-(5-(3-cyano-4-isopropoxyphenyl)-1,3,4-thiadiazol-2-yl)-2,3-dihydro-1H-inden-1-yl)acetamide], for which the EC50 was 0.05 to 0.5 nM.

Turning to `CC(C)Oc1ccc(-c2ncc(-c3cccc4c3CC[C@@H]4NS(N)(=O)=O)s2)cc1C#N` [Compound 167, (S)-N-(4-(2-(3-cyano-4-isopropoxyphenyl)thiazol-5-yl)-2,3-dihydro-1H -inden-1-yl)sulfamide], the EC50 is 0.05 to 0.5 nM.

Take `CC(C)Oc1ccc(-c2ncc(-c3cccc4c3CCC4NCC(=O)O)s2)cc1C#N` (stereo in doubt) [Compound 96, (R)-2-((4-(2-(3-cyano-4-isopropoxyphenyl)thiazol-5-yl)-2,3-dihydro-1H-inden-1-yl)amino)acetic acid]: the EC50 was 0.05 to 0.5 nM.

Turning to `CC(C)Oc1ccc(-c2cnc(-c3cccc4c3CCC4O)s2)cc1C#N` (centres unmarked) [Compound 222, 5-(2-(1-hydroxy-2,3-dihydro-1H-inden-4-yl)thiazol-5-yl)-2-isopropoxy-benzonitrile], the EC50 was above 5 nM.

Take `COC(=O)CCS(=O)(=O)N[C@H]1CCc2c(-c3cnc(-c4ccc(OC(C)C)c(C#N)c4)s3)cccc21` [Compound 156]: the EC50 fell in the range of 0.05 to 0.5 nM.

For the compound `CC(C)Oc1ccc(-c2ncc(-c3cccc4c3CCC4N3CCOCC3)s2)cc1C#N` (centres unmarked) [Compound 214], the EC50 was in the range of 0.5 to 5 nM.

On to `CC(C)Oc1ccc(-c2csc(-c3cccc4c3CCC4O)c2)cc1C#N` (centres unmarked) [Compound 227, 5-(5-(1-hydroxy-2,3-dihydro-1H-inden-4-yl)thiophen-3-yl)-2-isopropoxybenzonitrile], for which the EC50 was above 5 nM.

Regarding `CC(C)Oc1ccc(-c2nnc(-c3cccc4c3CCC4NCc3ncc[nH]3)s2)cc1C#N` (stereo in doubt) [Compound 29, (R)-5-(5-(1-(((1H-imidazol-2-yl)methyl)amino)-2,3-dihydro-1H-inden-4-yl)-1,3,4-thiadiazol-2-yl) -2-isopropoxybenzonitrile], the EC50 fell in the range of 0.05 to 0.5 nM.

With `CC(C)Oc1ccc(-c2nnc(-c3cccc4c3CC[C@@H]4NC(=O)CN)s2)cc1C#N` [Compound 9], the EC50 was 0.05 to 0.5 nM.

For the compound `CC(C)Oc1ccc(-c2nnc(-c3cccc4c3CCC4NS(=O)(=O)CC(=O)O)s2)cc1C#N` (stereo in doubt) [Compound 41, (R)-2-(N-(4-(5-(3-cyano-4-isopropoxyphenyl)-1,3,4-thiadiazol-2-yl)-2,3-dihydro-1H-inden-1-yl)sulfamoyl)acetic acid], the EC50 is below 0.05 nM.

Consider `CCS(=O)(=O)N[C@H]1CCc2c(-c3cnc(-c4ccc(OC(C)C)c(C#N)c4)s3)cccc21` [Compound 113], for which the EC50 was in the range of 0.05 to 0.5 nM.

Take `COC(=O)CS(=O)(=O)N[C@H]1CCc2c(-c3cnc(-c4ccc(OC(C)C)c(C#N)c4)s3)cccc21` [Compound 155, (S)-methyl 2-(N-(4-(2-(3-cyano-4-isopropoxyphenyl)thiazol-5-yl)-2,3-dihydro-1H-inden-1-yl)sulfamoyl)acetate]: the EC50 lay in the range of 0.5 to 5 nM.

`CC(C)Oc1ccc(-c2ncc(-c3cccc4c3CC[C@@H]4NC(=O)N3CC[C@@H](N(C)C)C3)s2)cc1C#N` [Compound 185]: the EC50 is above 5 nM.

`CC(C)Oc1ccc(-c2ncc(-c3cccc4c3CC[C@@H]4NS(=O)(=O)CCN3CCC(O)CC3)s2)cc1C#N` [Compound 145]: the EC50 was above 5 nM.

Regarding `COCC(=O)N[C@H]1CCc2c(-c3cnc(-c4ccc(OC(C)C)c(C#N)c4)s3)cccc21` [Compound 76, (S)-N-(4-(2-(3-cyano-4-isopropoxyphenyl)thiazol-5-yl)-2,3-dihydro-1H-inden-1-yl)-2-methoxyacetamide], the EC50 was in the range of 0.5 to 5 nM.

`CC(C)Oc1ccc(-c2ncc(-c3cccc4c3CC[C@@H]4NS(=O)(=O)CCN3CCC[C@H](O)C3)s2)cc1C#N` [Compound 142]: the EC50 fell in the range of 0.5 to 5 nM.

As for `CC(C)Oc1ccc(-c2nnc(-c3cccc4c3CC[C@@H]4NC(=O)CN(C)C)s2)cc1C#N` [Compound 13], the EC50 lay in the range of 0.5 to 5 nM.

Consider `CC(C)Oc1ccc(-c2ncc(-c3cccc4c3CC[C@@H]4NCC(=O)N3CC[C@H](O)C3)s2)cc1C#N` [Compound 103], for which the EC50 was 0.05 to 0.5 nM.
